Source: ChEMBL document CHEMBL1139621, “Acyclic cyanamide-based inhibitors of cathepsin K” (Bioorg Med Chem Lett, 2005)

Assays:
[1] = molecular target: T1, Cathepsin K (Homo sapiens, UniProt P43235); experiment: Inhibition constant against human cathepsin K in fluorescence assay using Cbz-Phe-Arg-AMC
T1 sequence (P43235 whole entry): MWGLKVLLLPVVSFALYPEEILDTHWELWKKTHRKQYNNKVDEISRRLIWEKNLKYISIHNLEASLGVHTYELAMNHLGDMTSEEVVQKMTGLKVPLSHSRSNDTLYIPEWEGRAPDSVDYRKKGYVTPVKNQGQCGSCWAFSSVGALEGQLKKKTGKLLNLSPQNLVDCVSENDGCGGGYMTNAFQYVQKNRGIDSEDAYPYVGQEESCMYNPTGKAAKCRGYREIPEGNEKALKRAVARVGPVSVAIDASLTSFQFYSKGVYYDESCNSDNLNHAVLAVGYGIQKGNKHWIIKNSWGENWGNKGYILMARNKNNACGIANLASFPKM

[2] = molecular target: Procathepsin L (Homo sapiens, UniProt P07711); experiment: Inhibition constant against human cathepsin L using Cbz-Phe-Arg-AMC
[3] = molecular target: Cathepsin B (Homo sapiens, UniProt P07858); experiment: Inhibition constant against human cathepsin B in fluorescence assay using Cbz-Phe-Arg-AMC
[4] = molecular target: T2, Cathepsin K (Rattus norvegicus, UniProt O35186); experiment: Inhibition constant against rat cathepsin K
T2 sequence (O35186 whole entry): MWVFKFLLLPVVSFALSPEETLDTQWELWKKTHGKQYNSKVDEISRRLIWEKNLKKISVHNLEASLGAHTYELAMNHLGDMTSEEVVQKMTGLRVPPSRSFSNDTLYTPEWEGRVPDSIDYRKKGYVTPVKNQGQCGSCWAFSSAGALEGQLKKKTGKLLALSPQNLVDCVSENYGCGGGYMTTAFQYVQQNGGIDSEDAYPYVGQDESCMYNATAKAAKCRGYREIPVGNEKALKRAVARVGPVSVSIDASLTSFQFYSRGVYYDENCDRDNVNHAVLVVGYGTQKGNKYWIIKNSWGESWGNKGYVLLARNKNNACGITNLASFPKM

[5] = molecular target: T3, Pro-cathepsin H (Homo sapiens, UniProt P09668); experiment: Inhibition constant against human cathepsin H using L-Arg-b-naphthalamide
T3 sequence (P09668 whole entry): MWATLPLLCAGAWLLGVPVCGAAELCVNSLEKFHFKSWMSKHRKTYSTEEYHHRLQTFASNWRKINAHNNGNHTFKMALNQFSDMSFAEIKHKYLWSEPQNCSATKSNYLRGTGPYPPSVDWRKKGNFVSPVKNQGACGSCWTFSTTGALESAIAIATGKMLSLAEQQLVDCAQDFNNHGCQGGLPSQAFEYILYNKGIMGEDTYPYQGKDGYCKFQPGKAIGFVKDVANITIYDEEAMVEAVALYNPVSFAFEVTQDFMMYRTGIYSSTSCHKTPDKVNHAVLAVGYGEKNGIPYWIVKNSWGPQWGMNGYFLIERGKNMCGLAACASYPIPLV

[6] = molecular target: T1, Cathepsin K; experiment: Inhibition constant against human cathepsin K

Sequence of Procathepsin L (P07711 whole entry): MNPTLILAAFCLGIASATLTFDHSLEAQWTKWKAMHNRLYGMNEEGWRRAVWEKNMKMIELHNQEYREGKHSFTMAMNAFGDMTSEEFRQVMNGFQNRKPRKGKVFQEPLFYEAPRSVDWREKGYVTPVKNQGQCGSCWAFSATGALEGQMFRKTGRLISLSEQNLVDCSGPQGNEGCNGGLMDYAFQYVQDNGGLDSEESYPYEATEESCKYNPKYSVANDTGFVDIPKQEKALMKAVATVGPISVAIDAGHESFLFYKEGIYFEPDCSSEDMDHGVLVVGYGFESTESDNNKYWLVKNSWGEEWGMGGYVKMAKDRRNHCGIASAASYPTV

| Structure (SMILES) | Ki [1] [nM] | also measured |
| --- | --- | --- |
| C[C@@H](CC1CCCCC1)OC(=O)NCC#N | 7900 | – |
| CC[C@@H](Cc1ccccc1)OC(=O)NN(C)C#N | 0.032 | Ki [2]: 0.036 nM; Ki [3]: 0.25 nM; Ki [4]: 0.072 nM |
| C[C@H](C#N)NC(=O)O[C@@H](C)CC1CCCCC1 | > 13000 | – |
| C[C@@H](CC1CCCCC1)OC(=O)NN(C#N)C(C)(C)C | 1500 | – |
| C[C@@H](CC1CCCCC1)OC(=O)CN(C)C#N | 26 | Ki [2]: 1500 nM; Ki [3]: 2600 nM; Ki [5]: > 13000 nM |
| CC(C)N(C#N)NC(=O)O[C@@H](C)CC1CCCCC1 | 0.019 | Ki [2]: 0.79 nM; Ki [3]: 1.3 nM; Ki [5]: 0.46 nM |
| N#CN1CCCC1 [CYANO-PYRROLIDINE] | – | Ki [6]: 2100 nM |
| C[C@H](C(=O)O[C@@H](C)CC1CCCCC1)N(C)C#N | > 13000 | – |
| C[C@@H](CC1CCCCC1)NC(=O)CN(C)C#N | 830 | – |
| C[C@@H](C#N)NC(=O)O[C@@H](C)CC1CCCCC1 | > 13000 | – |
| C[C@@H](CC1CCCCC1)OC(=O)[C@H](C)N(C)C#N | 2300 | – |
| C[C@@H](CC1CCCCC1)OC(=O)N(C)N(C)C#N | 62 | – |
| C[C@@H](CC1CCCCC1)OC(=O)[C@@H]1CCCN1C#N | – | Ki [6]: 1.8 nM |
| CC(C)(C)OC(=O)[C@@H]1CCCN1C#N | – | Ki [6]: 60 nM |

The next lines start with results.

| Ki [1] [nM] | Structure (SMILES) | also measured |
| --- | --- | --- |
| 0.004 | CCCN(C#N)NC(=O)O[C@@H](C)CC1CCCCC1 | – |
| 0.003 | CCN(C#N)NC(=O)O[C@@H](C)CC1CCCCC1 | – |
| 0.007 | CCCCN(C#N)NC(=O)O[C@@H](C)CC1CCCCC1 | – |
| 0.004 | CC(C)CN(C#N)NC(=O)O[C@@H](C)CC1CCCCC1 | – |
| 0.006 | C[C@@H](CC1CCCCC1)OC(=O)NN(C#N)Cc1ccccc1 | – |
| 0.009 | C[C@@H](CC1CCCCC1)OC(=O)NN(C)C#N | Ki [2]: 0.025 nM; Ki [3]: 0.077 nM; Ki [5]: 1.4 nM |
